Experiments:
[1] = system: angiotensin II contraction in longitudinal ileac muscles; assay: Inhibitory activity to angiotensin II contraction in longitudinal ileac muscles excised from a guinea pig; type: cell-based, Hartley male guinea pig; conditions: Cavia porcellus, 20 min; 50% contraction inhibition concentration; 10⁻⁸M angiotensin II; test compound reacted for 20 minutes; guinea pig ileum longitudinal muscle; read-out: IC₅₀
Procedure: (2) Inhibitory activity to angiotensin II contraction in longitudinal ileac muscles excised from a guinea pig
A Hartley male guinea pig (350-450 g in weight) was sacrificed under exsanguination, followed by the excision of its ileum.
A longitudinal muscle tissue (2 cm long) was prepared from the ileum in a manner known per se in the art. The sample was suspended in a 20-mℓ Magnus cylinder filled with a Tylode solution [composition (mM): NaCℓ 137, KCℓ 2.7, CaCℓ₂ 1.88, MgCℓ₂ 1.1, NaH₂PO₄ 0.4, NaH₂CO₃ 11.8 and glucose 5.6). The Tylode solution was incubated at 37°C and saturated with a mixed gas consisting of 95% O₂ + 5% CO₂. Using an isometric transducer ("TB-611T", manufactured by Nihon Kohden Corporation), variations in contraction were measured. The measurement results were recorded on a computer ("PC-9801", manufactured by NEC Corporation).
Under a load of 0.5 g initial tension, the longitudinal muscle sample was equilibrated in a nutrient solution for about one hour while being washed therewith at intervals of 15 minutes. Then, contracture by the administration of 80 mM of KCℓ was repeated twice. After conforming that the contraction occurred stably, the following test was conducted.
First, 10^-8M angiotensin II was administered to the sample and its maximum contraction was recorded. The test compound was then administered to the sample and they were reacted for 20 minutes. Administered again was 10⁻⁸M angiotensin II and the maximum contraction was measured. […] This test was repeated at increased concentrations of the test compound. A 50% contraction inhibition concentration (IC₅₀) was determined in accordance with a linear regressive calculation of the contraction inhibition rates.

[2] = molecular target: T1, angiotensin II (AII) receptor (Rattus norvegicus, UniProt P25095); assay: Inhibitory action against the binding with angiotensin II (AII) receptor, 125I-AII competition on cultured rat aortic smooth muscle cells; set-up: species or system male Wistar rat; conditions: 50% substitution of ¹²⁵I-AII specific binding; ¹²⁵I-AII 2 x 10⁻¹⁰M; one hour at room temperature; rat vascular smooth muscle cells; read-out: IC₅₀
T1 construct: Vascular smooth muscle cells, which had been separated from the aorta of a male Wistar rat and cultured on a 24-well multiplate; endogenous in cells; host or cells: primary cultured vascular smooth muscle cells from the aorta of a male Wistar rat
T1 sequence (P25095 1-359): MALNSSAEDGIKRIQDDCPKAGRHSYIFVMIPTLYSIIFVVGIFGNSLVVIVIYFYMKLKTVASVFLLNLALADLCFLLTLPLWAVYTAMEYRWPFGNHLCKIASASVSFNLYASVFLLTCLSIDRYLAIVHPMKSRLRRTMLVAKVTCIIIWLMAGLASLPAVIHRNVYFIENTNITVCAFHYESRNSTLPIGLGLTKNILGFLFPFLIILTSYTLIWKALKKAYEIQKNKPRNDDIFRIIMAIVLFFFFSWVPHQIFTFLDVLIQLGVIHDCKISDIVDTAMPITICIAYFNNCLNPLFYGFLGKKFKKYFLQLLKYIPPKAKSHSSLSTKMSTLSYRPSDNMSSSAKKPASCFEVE
Procedure: (1) Inhibitory action against the binding with angiotensin II (AII) receptor, using cultured rat aortic smooth muscle cells The present test was conducted in accordance with the method reported by Chiu et al. in European Journal of Pharmacology, 157, 13-21(1988), though after some modifications. […] To each well, ¹²⁵I-AII (final concentration: 2 x 10⁻¹⁰M) was added together with or without a test compound to give a total volume of 0.2 mℓ. Then the wells were incubated for one hour at room temperature to make the ¹²⁵I-AII and the test compound competitively bind to the vascular smooth muscle cells. Each well was thereafter washed with an ice-cold buffer three times to remove unbound ¹²⁵I-AII. To the cells, 0.2 mℓ of a 1 mol/ℓ solution of sodium hydroxide was added to solubilize the bound ¹²⁵I-AII. A bound amount of ¹²⁵I-AII contained in the resulting cell solution was measured by a gamma counter. The above test was conducted for each compound at different concentrations of 3 doses or more. The inhibition rate against the specific binding with ¹²⁵I-AII at each concentration was calculated in accordance with an equation to be set out subsequently herein.

SMILES	IC50 [1] [nM]	IC50 [2] [nM]
O=C(O)c1ccccc1C(=O)N=c1sc(C2CC2)nn1Cc1ccc(-c2ccccc2-c2nnn[nH]2)cc1 [Compound No.137, N-[5-Cyclopropyl-3-[2'-(1H-tetrazol-5-yl)biphenyl-4-yl]methyl-1,3,4-thiadiazoline-2-yliden]phthalamic acid]	0.9	
CCCCC(=O)N(Cc1ccc(-c2ccccc2-c2nn[nH]n2)cc1)c1nnc(C)s1 [Compound No.30, 2-[N-Valeryl-N-(2'-(1H-tetrazol-5-yl)biphenyl-4-yl)methyl]amino-5-methyl-1,3,4-thiadiazole]	29	
CCc1nn(Cc2ccc(-c3ccccc3-c3nnn[nH]3)cc2)c(=NC(=O)C(F)(F)F)s1 [Compound No.50, 2-Trifluoroacetylimino-5-ethyl-3-[2'-(1H-tetrazol-5-yl)biphenyl-4-yl]methyl-1,3,4-thiadiazoline]	4.9	
CCCC(=O)N(Cc1ccc(-c2ccccc2-c2nn[nH]n2)cc1)c1nnc(C2CC2)s1 [Compound No.12, 2-[N-Butyryl-N-(2'-(1H-tetrazol-5-yl)biphenyl-4-yl)methyl]amino-5-cyclopropyl-1,3,4-thiadiazole]	28	32
CCCC(=O)N=c1sc(C2CC2)nn1Cc1ccc(-c2ccccc2-c2nnn[nH]2)cc1 [Compound No.11, 2-Butyrylimino-5-cyclopropyl-3-[2'-(1H-tetrazol-5-yl)biphenyl-4-yl]methyl-1,3,4-thiadiazoline]	26	6.5
CCc1nn(Cc2ccc(-c3ccccc3-c3nnn[nH]3)cc2)c(=NC(=O)c2cscc2C(=O)O)s1 [Compound No.143, 4-[[5-Ethyl-3-[2'-(1H-tetrazol-5-yl)biphenyl-4-yl]methyl-1,3,4-thiadiazoline-2-yliden]aminocarbonyl] thiophene-3-carboxylic acid]	0.64	
CCCCc1nn(Cc2ccc(-c3ccccc3-c3nnn[nH]3)cc2)c(=NC(=O)CC)s1 [Compound No.7, 2-Propionylimino-5-n-butyl-3-[2'-(1H-tetrazol-5-yl)biphenyl-4-yl]methyl-1,3,4-thiadiazoline]	21	6.8
O=C(O)C1=C(C(=O)N=c2sc(C3CC3)nn2Cc2ccc(-c3ccccc3-c3nn[nH]n3)cc2)CCC1 [Compound No.132, 2-[[5-Cyclopropyl-3-[2'-(1H-tetrazol-5-yl)biphenyl-4-yl]methyl-1,3,4-thiadiazoline-2-yliden]aminocarbonyl]-1-cyclopetenecarboxylic acid]	0.4	
CCCC(=O)N=c1sc(CC)nn1Cc1ccc(-c2ccccc2-c2nnn[nH]2)cc1 [Compound No.1, 2-Butyrylimino-5-ethyl-3-[2'-(1H-tetrazol-5-yl)biphenyl-4-yl]methyl-1,3,4-thiadiazoline]	23	8
CCCc1nn(Cc2ccc(-c3ccccc3-c3nnn[nH]3)cc2)c(=NC(=O)C2=C(C(=O)O)CCC2)s1 [Compound No.131, 2-[[5-n-Propyl-3-[2'-(1H-tetrazol-5-yl)biphenyl-4-yl]methyl-1,3,4-thiadiazoline-2-yliden]aminocarbonyl]-1-cyclopenten carboxylic acid]	0.84	
CCCCc1nnc(N(Cc2ccc(-c3ccccc3-c3nn[nH]n3)cc2)C(=O)CCC)s1 [Compound No.14, 2-[N-Butyryl-N-(2'-(1H-tetrazol-5-yl)biphenyl-4-yl)methyl]amino-5-n-butyl-1,3,4-thiadiazole]	36	9.8
CCCCc1sc(=NC(=O)C2CC2)n(Cc2ccc(-c3ccccc3-c3nnn[nH]3)cc2)c1C(=O)O [Compound No.245, 2-Cyclopropylcarbonylimino-3-[2'-(1H-tetrazol-5-yl)biphenyl-4-yl]methyl-5-n-butylthiazoline-4-carboxylic acid]	0.35	
CCc1nn(Cc2ccc(-c3ccccc3-c3nnn[nH]3)cc2)c(=NC(=O)C2CC2)s1 [Compound No.19, 2-Cyclopropylcarbonylimino-5-ethyl-3-[2'-(1H-tetrazol-5-yl)biphenyl-4-yl]methyl-1,3,4-thiadiazoline]		15
O=C(N=c1sc(C2CC2)nn1Cc1ccc(-c2ccccc2-c2nn[nH]n2)cc1)C1CC1 [Compound No.23, 2-Cyclopropylcarbonylimino-5-cyclopropyl-3-[2'-(1H-tetrtazol-5-yl)biphenyl-4-yl]methyl-1,3,4-thiadiazoline]		31
CCc1nn(Cc2ccc(-c3ccccc3-c3nnn[nH]3)cc2)c(=NC(=O)c2ccccc2Cl)s1 [Compound No.68, 2-(2-Chlorobenzoyl)imino-5-ethyl-3-[2'-(1H-tetrazol-5-yl)biphenyl-4-yl]methyl-1,3,4-thiadiazoline]		5.7
CCCCC(=O)N=c1sc(CC)nn1Cc1ccc(-c2ccccc2-c2nnn[nH]2)cc1 [Compound No.31, 2-Valerylimino-5-ethyl-3-[2'-(1H-tetrazol-5-yl)biphenyl-4-yl]methyl-1,3,4-thiadiazoline]		17
CCCCc1nn(Cc2ccc(-c3ccccc3-c3nnn[nH]3)cc2)c(=NC(=O)CCC)s1 [Compound No.13, 2-Butyrylimino-5-n-butyl-3-[2'-(1H-tetrazol-5-yl)biphenyl-4-yl]methyl-1,3,4-thiadiazoline]	24	14
CCc1nn(Cc2ccc(-c3ccccc3-c3nnn[nH]3)cc2)c(=NS(=O)(=O)c2ccccc2C(=O)OC)s1 [Compound No.151, 2-[[5-Ethyl-3-[2'-(1H-tetrazol-5-yl)biphenyl-4-yl]methyl-1,3,4-thiadiazoline-2-yliden]aminosulfonyl]benzoic acid methyl ester]	0.8	
CCCc1sc(=NC(=O)C2CC2)n(Cc2ccc(-c3ccccc3-c3nnn[nH]3)cc2)c1C(=O)O [Compound No.244, 2-Cyclopropylcarbonylimino-3-[2'-(1H-tetrazol-5-yl)biphenyl-4-yl]methyl-5-n-propylthiazoline-4-carboxylic acid]	0.76	
O=C(N=c1sc(-c2ccccc2)nn1Cc1ccc(-c2ccccc2-c2nnn[nH]2)cc1)C1CC1 [Compound No.27, 2-Cyclopropylcarbonylimino-5-phenyl-3-[2'-(1H-tetrazol-5-yl)biphenyl-4-yl]methyl-1,3,4-thiadiazoline]	10	
CCCC(=O)N(Cc1ccc(-c2ccccc2-c2nn[nH]n2)cc1)c1nnc(CC)s1 [Compound No.2, 2-[N-Butyryl-N-(2'-(1H-tetrazol-5-yl)biphenyl-4-yl)methyl]amino-5-ethyl-1,3,4-thiadiazole]	11	13
CCCCC(=O)N(Cc1ccc(-c2ccccc2-c2nn[nH]n2)cc1)c1nnc(C2CC2)s1 [Compound No.34, 2-[N-Valeryl-N-(2'-(1H-tetrazol-5-yl)biphenyl-4-yl)methyl]amino-5-cyclopropyl-1,3,4-thiadiazole]		10
CCc1nn(Cc2ccc(-c3ccccc3-c3nnn[nH]3)cc2)c(=NC(=O)c2c(F)ccc(F)c2C(=O)O)s1 [Compound No.139, 3,6-Difluoro-N-[5-Ethyl-3-[2'-(1H-tetrazol-5-yl)biphenyl-4-yl]methyl-1,3,4-thiadiazoline-2-yliden] phthalamic acid]	7.4	
